Assay results: US20260048151A1, “HEMICYANINE PUSH-PULL DYES BASED ON CHROMENE ELECTRON DONORS” (UNIVERSITY OF CONNECTICUT, priority 2022, published 2026)

Experiment: Absorption and emission spectra, fluorescence quantum efficiency in EtOH, PBS and lipid vesicles (MLV)
Assay type: physicochemical
Description: FIGS. 2A-2C are plots showing absorption and emission spectra of 2a, in comparison with ElectroFluor630, in various solvent environments: MLV, EtOH, and PBS. Multilamellar lipid vesicle suspension (MLV) was prepared by sonicating soybean phosphatidylcholine in PBS buffer (2 mg/mL) to mimic the cell membrane environment. The emission spectra in ethanol and PBS buffer were scaled 10 and 20 times respectively relative to the emission spectra in MLV. Excitation wavelength is 580 nm for emission spectra.
All chemicals were purchased from commercial sources (Sigma Aldrich, Acros, TCI America, Combi-Blocks, and others) and used without further purification. Column chromatography was generally performed on COMBIFLASH NextGen 300 using normal phase silica columns except that for some final dye products amine silica columns were used. Thin layer chromatography (TLC) was carried out on EM 60 F-254 plastic TLC plates. NMR spectra were recorded on Varian 400 MHz, 500 MHz, and 800 MHz instruments at the UConn Heath Structural Biology Facility. All spectra are referenced internally to TMS or residual solvent signals. Electrospray ionization (ESI) high-resolution mass spectra (HRMS) were obtained on a QStar Elite (AB Sciex) at the Department of Chemistry, University of Connecticut. UV/Vis absorption spectra were recorded on a UV-Visible spectrophotometer (Shimadzu, UV-1601PC) and fluorescence emission spectra on a Horiba Fluorolog spectrofluorometer (Horiba, Inc., Edison, NJ). Fluorescence quantum yield for dyes was determined by a relative method using Rhodamine 6G (excited at 480 nm, FQY=0.95 in EtOH) or cresyl violet (excited at 580 nm, FQY=0.54 in MeOH) as the references.
Absorbance and the fluorescence properties of the new VSDs were determined. The absorption and emission spectra for 2a, together with ElectroFluor630, in aqueous buffer (PBS), ethanol, and when intercalated in the membrane of lipid vesicles are shown in FIGS. 2A-C. […] This is particularly advantageous for fluorescence imaging because background fluorescence from unbound dye is negligible. Another characteristic of the hemicyanine VSDs that is preserved by 2a in FIGS. 2A-C is the large Stokes shift between the excitation and emission maxima. 125 nm for the membrane-bound dye. This is also a benefit for fluorescence detection and imaging, as the fluorescence can be readily filtered from scattered exciting light. The broad wavelength window afforded by the spectra is also an important benefit for the design of experiments with multiple fluorescent sensors. For comparative purposes, certain VSDs are shown below.
As expected, the spectra are largely insensitive to alkyl substitution. Table 1 also includes data for ElectroFluor630 (aka Di-4-ANEQ (F) PTEA) for comparison. The absorption maxima of 2a in ethanol (EtOH), aqueous buffer (PBS) and when bound to lipid membranes (multilamellar vesicles, MLV) are red shifted by 77 nm, 63 nm and 63 nm, respectively, relative to ElectroFluor630, which is isostructural to 2a. […] The absorption and emission spectra of 2a, 2b, and 2c are all shifted to the red by 50-65 nm relative to ElectroFluor630.

- absorption maximum (in EtOH): 696 nm
- absorption maximum (in MLV (multilamellar lipid vesicles)): 599 nm
- absorption maximum (in PBS): 597 nm
- Fluorescence quantum efficiency (FQE) (in lipid vesicle suspensions): 0.10
- emission maximum (membrane-bound (MLV)): 734 nm
Structure (SMILES): CCCCCCN(CCCCCC)c1ccc2c(c1)OCC(/C=C/c1c(F)c[n+](CCC[N+](CC)(CC)CC)c3ccccc13)=C2.[Br-].[Br-] [2c]
